Experimental data as given in ChEMBL document CHEMBL1154047, “Chiral gossypol derivatives: evaluation of their anticancer activity and molecular modeling” (Eur J Med Chem, 2009).
Where “and” joins values, the source holds several entries; their conditions need not be identical. Equal entries are not always repeated.

Tests used:
[1] = Anticancer activity against human U87 cells after 48 hrs by MTT assay; type: functional, cell-based, U-87MG ATCC
[2] = Anticancer activity against human M85 cells after 48 hrs by MTT assay; type: functional, cell-based
[3] = Ratio of compound IC50 to (-)-gossypol IC50 for human U87 cells; type: functional, U-87MG ATCC
[4] = system: HeLa; experiment: Ratio of compound IC50 to (-)-gossypol IC50 for human HeLa cells; type: functional
[5] = system: HeLa; experiment: Anticancer activity against human HeLa cells after 48 hrs by MTT assay; type: functional, cell-based
[6] = Ratio of compound IC50 to (-)-gossypol IC50 for human M85 cells; type: functional
[7] = Ratio of compound IC50 to cisplatin IC50 for human U87 cells; type: functional, U-87MG ATCC
[8] = system: HeLa; experiment: Ratio of compound IC50 to cisplatin IC50 for human HeLa cells; type: functional
[9] = Ratio of compound IC50 to cisplatin IC50 for human M85 cells; type: functional

SMILES: Cc1cc2c(c(O)c1-c1c(C)cc3c(c1O)/C(=C/NC(C)C)C(=O)C(O)=C3C(C)C)/C(=C/NC(C)C)C(=O)C(O)=C2C(C)C (stereo in doubt; 10b)
- IC50 ([1]; u-87mg atcc): 24.4 µM
- IC50 ([2]; m85): 30.4 µM
- Ratio IC50 [3]: 0.81
- Ratio IC50 [4]: 0.96
- IC50 ([5]; hela): 17.1 µM
- Ratio IC50 [6]: 1.66
- Ratio IC50 [7]: 1.43
- Ratio IC50 [8]: 1.36
- Ratio IC50 [9]: 2.04

SMILES: Cc1cc2c(C(C)C)c(O)c(O)cc2c(O)c1-c1c(C)cc2c(C(C)C)c(O)c(O)cc2c1O [APOGOSSYPOL]
- IC50 ([1]; Homo sapiens, U-87 MG, 48 h): 35.5 µM
- IC50 ([1]; u-87mg atcc): 28.5 µM
- IC50 ([2]; Homo sapiens, M85, 48 h): > 80 µM
- IC50 ([2]; m85): 61.2 µM
- Ratio IC50 [3]: 1.17 and 0.94
- Ratio IC50 [4]: 1.43 and 0.79
- IC50 ([5]; Homo sapiens, HeLa, 48 h): 25.5 µM
- IC50 ([5]; hela): 14.1 µM
- Ratio IC50 [6]: 3.33
- Ratio IC50 [7]: 2.08 and 1.67
- Ratio IC50 [8]: 2.02 and 1.12
- Ratio IC50 [9]: 4.11

SMILES: CC1=C(C2=C(C)C(=O)c3c(c(C=O)c(O)c(O)c3C(C)C)C2=O)C(=O)c2c(C=O)c(O)c(O)c(C(C)C)c2C1=O [GOSSYPOLONE]
- IC50 ([1]; Homo sapiens, U-87 MG, 48 h): 26.1 µM
- IC50 ([2]; Homo sapiens, M85, 48 h): 28.3 µM
- Ratio IC50 [3]: 0.86
- Ratio IC50 [4]: 1.31
- IC50 ([5]; Homo sapiens, HeLa, 48 h): 23.3 µM
- Ratio IC50 [6]: 1.54
- Ratio IC50 [7]: 1.53
- Ratio IC50 [8]: 1.85
- Ratio IC50 [9]: 1.9

SMILES: Cc1cc2c(C(C)C)c(O)c(O)c(C=O)c2c(O)c1-c1c(C)cc2c(C(C)C)c(O)c(O)c(C=O)c2c1O [GOSSYPOL]
- IC50 ([1]; Homo sapiens, U-87 MG, 48 h): 30.2 µM
- IC50 ([1]; u-87mg atcc): 59.6 µM
- IC50 ([2]; m85): 18.4 µM and 39.7 µM
- Ratio IC50 [3]: 1 and 1.97
- Ratio IC50 [4]: 1 and 1.76
- IC50 ([5]; Homo sapiens, HeLa, 48 h): 17.8 µM
- IC50 ([5]; hela): 31.3 µM
- Ratio IC50 [6]: 1 and 2.16
- Ratio IC50 [7]: 1.77 and 3.49
- Ratio IC50 [8]: 1.41 and 2.48
- Ratio IC50 [9]: 1.23 and 2.66
